Data taken from patent US8673906B2, “Chromenone derivatives” (AstraZeneca AB, priority 2010, dated 2014).

target: PI3Kβ (Homo sapiens (Human), UniProt P42338); experiment: In vitro enzyme inhibition assay (Kinase Glo based enzyme activity assay); assay type: biochemical; conditions: Test (a), human recombinant enzyme; read-out: PI3Kβ inhibition, IC50
Method: (a) In Vitro Enzyme Inhibition Assay
The inhibition of PI3Kβ, PI3Kα, PI3Kγ and PI3Kδ was evaluated in a Kinase Glo based enzyme activity assay using human recombinant enzymes. The assay measures depletion of ATP after incubation with enzyme, PIP2 and ATP plus compound. ATP at the end of the reaction is detected by addition of Kinase Glo reagent, in this the Ultra Glo™ luciferase (Promega) uses the ATP as a substrate to catalyze the mono-oxygenation of luciferin and the generation of light. A direct relationship exists between the luminescence measured with the Kinase-Glo Plus Reagent and the amount of ATP remaining in a completed kinase reaction and luminescence is inversely related to kinase activity. Twelve different compound concentrations were tested and raw data from the inhibition of PI3 Kb, PI3Kα, PI3Kγ and PI3Kδ was plotted versus inhibitor concentration.
Compounds in 100% DMSO were added to assay plates by acoustic dispensing. PI3Kβ was added in a Tris buffer (50 mM Tris pH7.4, 0.05% CHAPS, 2.1 mM DTT, and 10 mM MgCl2) and allowed to preincubate with compound for 20 minutes prior to addition of substrate solution containing PIP2 and ATP. The enzyme reaction was stopped after 80 minutes by the addition of Kinase Glo detection solution. Plates were left for 30 minutes at room temperature then read on a Pherastar Instrument (Luminescence ATP 384 program) setting gain on max well. The final concentration of DMSO, ATP and PIP2 in the assay were, 1%, 80 μM, and 80 μM respectively.
IC50 values were calculated using a log curve fitting to a non-linear regression package, fitting raw data to inhibitor concentration.

Sequence of PI3Kβ (P42338 whole entry): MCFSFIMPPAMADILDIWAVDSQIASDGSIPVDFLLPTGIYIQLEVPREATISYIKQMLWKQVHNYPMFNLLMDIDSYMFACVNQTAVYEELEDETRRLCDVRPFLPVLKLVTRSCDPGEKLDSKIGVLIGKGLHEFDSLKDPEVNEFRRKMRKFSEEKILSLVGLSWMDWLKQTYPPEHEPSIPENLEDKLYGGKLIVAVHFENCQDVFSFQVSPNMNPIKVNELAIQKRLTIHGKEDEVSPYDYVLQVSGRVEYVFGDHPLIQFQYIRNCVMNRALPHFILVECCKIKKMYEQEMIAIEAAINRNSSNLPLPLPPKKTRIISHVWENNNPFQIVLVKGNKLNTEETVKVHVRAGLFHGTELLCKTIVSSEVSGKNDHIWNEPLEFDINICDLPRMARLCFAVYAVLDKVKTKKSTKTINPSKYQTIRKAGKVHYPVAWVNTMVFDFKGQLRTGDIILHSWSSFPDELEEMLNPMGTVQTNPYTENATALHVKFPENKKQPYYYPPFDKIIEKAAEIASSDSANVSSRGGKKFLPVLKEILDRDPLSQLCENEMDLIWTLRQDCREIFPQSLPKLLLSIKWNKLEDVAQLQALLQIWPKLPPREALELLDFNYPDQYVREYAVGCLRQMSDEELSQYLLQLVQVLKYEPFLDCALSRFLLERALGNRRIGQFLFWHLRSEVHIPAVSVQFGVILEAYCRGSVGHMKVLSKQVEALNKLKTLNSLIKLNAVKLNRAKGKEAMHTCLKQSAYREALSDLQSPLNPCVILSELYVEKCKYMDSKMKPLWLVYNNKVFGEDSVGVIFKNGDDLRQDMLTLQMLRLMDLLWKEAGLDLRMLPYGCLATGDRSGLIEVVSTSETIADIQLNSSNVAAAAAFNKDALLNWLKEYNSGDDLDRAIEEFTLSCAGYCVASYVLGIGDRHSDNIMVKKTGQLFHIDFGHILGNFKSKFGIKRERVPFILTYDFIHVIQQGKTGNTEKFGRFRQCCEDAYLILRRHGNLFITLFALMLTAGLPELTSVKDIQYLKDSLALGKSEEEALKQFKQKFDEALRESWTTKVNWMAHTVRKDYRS
Sequence of PI3Kβ (P27986 whole entry partner): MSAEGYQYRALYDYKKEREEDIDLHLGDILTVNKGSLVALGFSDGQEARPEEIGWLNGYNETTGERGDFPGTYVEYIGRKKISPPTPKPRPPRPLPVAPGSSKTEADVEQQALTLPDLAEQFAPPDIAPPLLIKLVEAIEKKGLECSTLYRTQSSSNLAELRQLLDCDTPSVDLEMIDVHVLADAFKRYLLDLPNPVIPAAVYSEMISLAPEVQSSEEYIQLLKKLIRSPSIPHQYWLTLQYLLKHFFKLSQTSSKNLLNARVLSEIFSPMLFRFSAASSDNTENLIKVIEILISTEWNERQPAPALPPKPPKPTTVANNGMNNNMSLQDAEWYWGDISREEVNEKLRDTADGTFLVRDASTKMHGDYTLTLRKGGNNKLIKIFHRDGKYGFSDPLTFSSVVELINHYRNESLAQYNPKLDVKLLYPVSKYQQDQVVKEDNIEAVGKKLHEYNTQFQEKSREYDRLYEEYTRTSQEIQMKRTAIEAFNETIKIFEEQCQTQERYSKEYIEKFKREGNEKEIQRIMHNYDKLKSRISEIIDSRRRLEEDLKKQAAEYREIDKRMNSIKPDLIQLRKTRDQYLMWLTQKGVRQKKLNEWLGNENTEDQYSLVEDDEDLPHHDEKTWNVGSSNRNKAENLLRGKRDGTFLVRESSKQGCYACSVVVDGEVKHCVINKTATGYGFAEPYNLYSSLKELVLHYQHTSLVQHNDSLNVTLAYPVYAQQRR

| SMILES | IC50 [nM] |
| --- | --- |
| CC(Nc1cc(F)cc(F)c1)c1cc(C(=O)N2CC[C@H](O)C2)cc2c(=O)cc(N3CCOCC3)oc12 (single isomer, unassigned) [Example 2.08] | 7 |
| CC(Nc1ccc(F)c(F)c1)c1cc(C(=O)N(C)C)cc2c(=O)cc(N3CCOCC3)oc12 (single isomer, unassigned) [Example 3.03a, 8-(1-(3,4-difluorophenylamino)ethyl)-N,N-dimethyl-2-morpholino-4-oxo-4H-chromene-6-carboxamide] | 649 |
| CC(Nc1ccc(F)c(F)c1)c1cc(C(=O)N(C)C)cc2c(=O)cc(N3CCOCC3)oc12 (single isomer, unassigned) [Example 3.03b, 8-(1-(3,4-difluorophenylamino)ethyl)-N,N-dimethyl-2-morpholino-4-oxo-4H-chromene-6-carboxamide] | 3 |
| CC(Nc1cccc(Cl)c1F)c1cc(C(=O)N(C)C)cc2c(=O)cc(N3CCOCC3)oc12 (single isomer, unassigned) [Example 3.04b, 8-(1-(3-chloro-2-fluorophenylamino)ethyl)-N,N-dimethyl-2-morpholino-4-oxo-4H-chromene-6-carboxamide] | 3 |
| CC(c1cc(C(=O)N2CCC(O)CC2)cc2c(=O)cc(N3CCOCC3)oc12)N(C)c1cc(F)cc(F)c1 (single isomer, unassigned) [Example 7.01a, 8-(1-((3,5-difluorophenyl)(methyl)amino)ethyl)-6-(4-hydroxypiperidine-1-carbonyl)-2-morpholino-4H-chromen-4-one] | 8 |
| CC(c1cc(C(=O)N2CCC(O)CC2)cc2c(=O)cc(N3CCOCC3)oc12)N(C)c1cc(F)cc(F)c1 (single isomer, unassigned) [Example 7.01b, 8-(1-((3,5-difluorophenyl)(methyl)amino)ethyl)-6-(4-hydroxypiperidine-1-carbonyl)-2-morpholino-4H-chromen-4-one] | 4320 |
| CC(Nc1cc(F)cc(F)c1)c1cc(C(=O)N(C)C)cc2c(=O)cc(N3CCO[C@H](C)C3)oc12 (single isomer, unassigned) [Example 9.01a] | 17900 |
| CC(Nc1cc(F)cc(F)c1)c1cc(C(=O)N(C)C)cc2c(=O)cc(N3CCO[C@H](C)C3)oc12 (single isomer, unassigned) [Example 9.01b] | 3 |
| CC(Nc1cc(F)cc(F)c1)c1cc(C(=O)N(C)C)cc2c(=O)cc(N3CCO[C@@H](C)C3)oc12 (single isomer, unassigned) [Example 9.02a] | 22700 |
| CC(Nc1cc(F)cc(F)c1)c1cc(C(=O)N(C)C)cc2c(=O)cc(N3CCO[C@@H](C)C3)oc12 (single isomer, unassigned) [Example 9.02b] | 7 |
| CC(Nc1ccccc1)c1cc(C(=O)NCCN(C)C)cc2c(=O)cc(N3CCOCC3)oc12 (stereo not shown) [Example 1.02, N-(2-(dimethylamino)ethyl)-2-morpholino-4-oxo-8-(1-(phenylamino)ethyl)-4H-chromene-6-carboxamide] | 2 |
| CC(Nc1ccc(F)cc1)c1cc(C(=O)N(C)C)cc2c(=O)cc(N3CCOCC3)oc12 (stereo not shown) [Example 2.01, 8-(1-(4-fluorophenylamino)ethyl)-N,N-dimethyl-2-morpholino-4-oxo-4H-chromene-6-carboxamide] | 7 |
| CC(Nc1ccc(F)cc1)c1cc(C(=O)N(C)CCN(C)C)cc2c(=O)cc(N3CCOCC3)oc12 (stereo not shown) [Example 2.02, N-(2-(dimethylamino)ethyl)-8-(1-(4-fluorophenylamino)ethyl)-N-methyl-2-morpholino-4-oxo-4H-chromene-6-carboxamide] | 7 |
| CC(Nc1cccc(Cl)c1F)c1cc(C(=O)N2CCC(O)CC2)cc2c(=O)cc(N3CCOCC3)oc12 (stereo not shown) [Example 2.06, 8-(1-(3-chloro-2-fluorophenylamino)ethyl)-6-(4-hydroxypiperidine-1-carbonyl)-2-morpholino-4H-chromen-4-one] | 6 |
| CC(Nc1cc(F)cc(F)c1)c1cc(C(=O)N2CCOCC2)cc2c(=O)cc(N3CCOCC3)oc12 (stereo not shown) [Example 2.07, 8-(1-(3,5-difluorophenylamino)ethyl)-6-(morpholine-4-carbonyl)-2-morpholino-4H-chromen-4-one] | 5 |
| CC(Nc1ccc(F)c(Cl)c1)c1cc(C(=O)N(C)C)cc2c(=O)cc(N3CCOCC3)oc12 (stereo not shown) [Example 3.05, 8-(1-(3-chloro-4-fluorophenylamino)ethyl)-N,N-dimethyl-2-morpholino-4-oxo-4H-chromene-6-carboxamide] | 6 |

Other lines, results leading:

| IC50 [nM] | SMILES |
| --- | --- |
| 2250 | CC(Nc1cccc(Cl)c1F)c1cc(C(=O)N(C)C)cc2c(=O)cc(N3CCOCC3)oc12 (single isomer, unassigned) [Example 3.04a, 8-(1-(3-chloro-2-fluorophenylamino)ethyl)-N,N-dimethyl-2-morpholino-4-oxo-4H-chromene-6-carboxamide] |
| 4 | CC(Nc1cc(F)cc(F)c1F)c1cc(C(=O)N(C)C)cc2c(=O)cc(N3CCOCC3)oc12 (single isomer, unassigned; (-)) [Example 3.13b, (−)-N,N-dimethyl-2-morpholino-4-oxo-8-(1-(2,3,5-trifluorophenylamino)ethyl)-4H-chromene-6-carboxamide] |
| 1 | CC(Nc1cccc(F)c1)c1cc(C(=O)NCCN(C)C)cc2c(=O)cc(N3CCOCC3)oc12 (stereo not shown) [Example 1.01, N-(2-(dimethylamino)ethyl)-8-(1-(3-fluorophenylamino)ethyl)-2-morpholino-4-oxo-4H-chromene-6-carboxamide] |
| 9 | CC(Nc1cccc(Cl)c1F)c1cc(C(=O)NCCN(C)C)cc2c(=O)cc(N3CCOCC3)oc12 (stereo not shown) [Example 2.00, 8-(1-(3-chloro-2-fluorophenylamino)ethyl)-N-(2-(dimethylamino)ethyl)-2-morpholino-4-oxo-4H-chromene-6-carboxamide] |
| 6 | CC(Nc1ccc(F)c(Cl)c1)c1cc(C(=O)N2CCC(O)CC2)cc2c(=O)cc(N3CCOCC3)oc12 (stereo not shown) [Example 2.03, 8-(1-(3-chloro-4-fluorophenylamino)ethyl)-6-(4-hydroxypiperidine-1-carbonyl)-2-morpholino-4h-chromen-4-one] |
| 4 | CC(Nc1ccc(F)c(Cl)c1)c1cc(C(=O)N(C)CCO)cc2c(=O)cc(N3CCOCC3)oc12 (stereo not shown) [Example 2.04, 8-(1-(3-chloro-4-fluorophenylamino)ethyl)-N-(2-hydroxyethyl)-N-methyl-2-morpholino-4-oxo-4H-chromene-6-carboxamide] |
| 7 | CC(c1cc(C(=O)NCCN(C)C)cc2c(=O)cc(N3CCOCC3)oc12)N(C)c1ccc(F)cc1 (stereo not shown) [Example 3.00, N-(2-(dimethylamino)ethyl)-8-(1-((4-fluorophenyl)(methyl)amino)ethyl)-2-morpholino-4-oxo-4H-chromene-6-carboxamide] |
| 11 | CC(c1cc(C(=O)N(C)CCN(C)C)cc2c(=O)cc(N3CCOCC3)oc12)N(C)c1ccc(F)cc1 (stereo not shown) [Example 3.02, N-(2-(dimethylamino)ethyl)-8-(1-((4-fluorophenyl)(methyl)amino)ethyl)-N-methyl-2-morpholino-4-oxo-4H-chromene-6-carboxamide] |
| 11 | CC(c1cc(C(=O)N(C)C)cc2c(=O)cc(N3CCOCC3)oc12)N(C)c1ccc(F)c(Cl)c1 (stereo not shown) [Example 3.08, 8-(1-((3-chloro-4-fluorophenyl)(methyl)amino)ethyl)-N,N-dimethyl-2-morpholino-4-oxo-4H-chromene-6-carboxamide] |
